Assay results published in patent US8623861B2, “Method of treating demyelination diseases” (priority 2006, dated 2014).

How the values were obtained:
C57BL/6 mice [1] = test system: C57BL/6 mice
Protocol: (§1) To test whether quetiapine can protect mouse brain from cuprizone-induced demyelination, 8-week old mice were fed a diet of milled LabDiet® rodent chow (PMI nutrition international LLC, Brentwood, Mo., USA) containing 0.2% cuprizone for 5 weeks (w/w) (Sigma-Aldrich, St. Louis, Mo., USA) as previously described (Morell et al., 1998). […] The study included the following 4 groups (6-8 animals/group): group 1: control, fed with regular chow (con); group 2: pre-administrated with quetiapine (10 mg/kg/day in drinking water) for 1 week, then followed by 5 weeks of quetiapine administration with normal diet (que); group 3: fed for 5 weeks on a cuprizone-containing diet (cup) with regular tap water for drinking; group 4: pre-administrated with quetiapine (10 mg/kg/day in drinking water) for 1 week, then followed by 5 weeks of quetiapine treatment with cuprizone administration (cup+que).
(§2) To study the effect of quetiapine on the remyelination process, an additional two groups (6-8 animals/group) of mice were treated with 0.2% cuprizone in milled chow for 6 weeks, and then returned to a cuprizone-free diet (Matsushima and Morell, 2001). Upon resumption of the cuprizone-free diet, mice were fed with either vehicle (water) or quetiapine (10 mg/kg/day in water, que) for 2 weeks.
Immediately after the locomotor activity test, spatial working memory was assessed by recording spontaneous alternation behavior in a Y-maze comprised of three 30-cm compartments marked as A, B, and C arms. Spontaneous alternation behavior is based on the natural tendency of rodents to explore a novel environment. In a Y-maze, mice tend to explore the maze by systematically entering each arm. For efficient alternation, mice are required to know which arms have already been visited. Therefore, alternation behavior can be regarded as a measure involving spatial working memory. […] Each mouse was placed at the end of one arm and allowed to move freely through the maze during an 8-min period. The total number and series of arm entries were recorded visually. The number of overlapping entrance sequences (e.g., ABC, BCA) was defined as the number of alternations. The effect was calculated as the percentage of alternation according to the following formula: Percent alternation=(number of alternations)/(total number of arm entries-2)×100 (Wall et al., 2002). Total entries were scored as an index of ambulatory activity in the Y-maze, and mice showing scores below six entries would be excluded.

C57BL/6 mice [2] = details: all groups (con, que, cup, cup+que); data not shown
Protocol: as §1, §2

C57BL/6 mice [3] = test system: C57BL/6 mice; remark: listed apart in the source
Protocol: as §1, §2
At the end of their treatment period, mice were anaesthetized with pentobarbital sodium at 50 mg/kg and perfused intracardially with 0.01 M PBS followed by 4% paraformaldehyde in PBS, and the brains were post-fixated overnight in 4% paraformaldehyde. Brain tissues were then rinsed 3 times with 0.01 M PBS and cryoprotected in 30% sucrose at 4° C. for one day and frozen at −80° C. for immunostaining. Serial coronal sections were dissected between levels 1 to −1 mm bregma, as defined in the mouse brain atlas of Franklin and Paxinos (Franklin and Paxinos, 1997). Demyelination was evaluated in frozen sections (30 μm) of the corpus callosum using Luxol fast blue with periodic acid-Schiff reaction. Floating frozen sections (30 μm) were incubated with 0.3% of H2O2 in 0.01 M PBS for 30 min at room temperature (RT) for quenching endogenous peroxidase activity, then blocked with 10% goat serum/PBS or 10% rabbit serum (for MBP staining) for 1 hour at RT, and then incubated overnight with the primary antibody(s) diluted in the blocking solution. After rinsing, the sections were incubated with the appropriate biotin-conjugated secondary antibody (1:1000; Vector Laboratories, Burlingame, Calif.) for 1 hour at RT. Sections were then developed with the avidin biotin complex kit (Vector Laboratories, Burlingame, Calif.) and the antibodies were visualized with DAB chromogen (Sigma-Aldrich, St. Louis, Mo.).
A goat polyclonal antibody directed against MBP (1:250; Santa Cruz Biotechnology, CA) was used to detect myelin. A rabbit anti-pi isoform of glutathione S-transferase (GST-pi, 1:500; Stressgen, Victoria, BC, Canada) was used as a marker for mature oligodendrocytes (Mason et al., 2004); Ness et al., 2005). The rabbit polyclonal NG2 antibody (1:200; Chemicon, Temecula, Calif.) was used as a marker for oligodendrocyte progenitors (Nishiyama et al., 1996).
For GST-pi and NG2 quantification, three digital pictures from the coronal section from each animal (including the middle line and the two edges of the corpus callosum in each section) were examined. Cell counts are expressed as the mean number of positive cells counted in three coronal sections from two different areas, 500 μm apart, between 1 to −1 mm bregma, following the mouse brain atlas of Franklin and Paxinos (Franklin and Paxinos, 1997). Results are expressed as the average of at least 6 mice per group. For MBP staining analysis, three digital pictures from the coronal section (including cerebral cortex) of each animal were examined, at least 6 animals of each group.

[4] = test system: neural progenitor cell cultures; details: in vitro
BDNF = details: Xu et al., 2002; Luo et al., 2004; cited from earlier work
PC 12 cell = details: serum withdrawal or addition of hydrogen peroxide, β-amyloid peptide or MPP+; cited from earlier work
rats = details: He et al., 2005; cited from earlier work
[5] = He et al., 2006; Martin et al., 2005; cited from earlier work
[6] = 2 weeks of recovery from cuprizone, quetiapine 10 mg/kg/day in water vs. vehicle (water)
[7] = 0.2% cuprizone 5 weeks with quetiapine co-administration vs. cuprizone alone
[8] = quetiapine alone with normal diet vs. control

OCCOCCN1CCN(C2=Nc3ccccc3Sc3ccccc32)CC1 [quetiapine]
total number of arm entries in Y-maze (C57BL/6 mice [1]; 0.2% cuprizone 5 weeks, co-administration of quetiapine 10 mg/kg/day p.o.): decreased the rise of the total number of arm entries induced by cuprizone | impairment of spontaneous alternation behavior in the Y-maze (C57BL/6 mice [1]; 0.2% cuprizone 5 weeks, co-administration of quetiapine 10 mg/kg/day p.o., ++p<0.01 vs. cuprizone): significantly attenuated the impairment of spontaneous alternation behavior | memory impairment in Y-maze during remyelination (C57BL/6 mice [1]; [6]): did not appear to improve memory impairment | total arm entries in the Y-maze during remyelination (C57BL/6 mice [1]; [6]): did not appear to improve memory impairment or alter the total arm entries | locomotor activity (C57BL/6 mice [2]): no significant difference among groups | loss of GST-pi+ mature oligodendrocytes in the corpus callosum (C57BL/6 mice [3]; 0.2% cuprizone 5 weeks with quetiapine co-administration): did not reverse the loss of mature oligodendrocytes | demyelination in LFB-PAS staining (C57BL/6 mice [3]; [7]): showed the same trend as MBP staining | number of NG2+ cells within the demyelinated areas (C57BL/6 mice [3]; [7]): dramatically decreased the number of NG2+ cells | reduction of demyelination in MBP staining (C57BL/6 mice [3]; [7]): 35% | remyelination in demyelinated lesions (MBP and LFB-PAS) (C57BL/6 mice [3]; 2-week recovery from cuprizone, quetiapine vs. vehicle (water)): no difference between the vehicle (water) and quetiapine treatment on remyelination | NG2+ cells after recovery (C57BL/6 mice [3]; 2 weeks recovery from cuprizone, quetiapine vs. water): had little effect on this change | GST-pi+ mature oligodendrocytes during remyelination (C57BL/6 mice [3]; 2 weeks recovery from demyelination, quetiapine vs. water, +p<0.05 vs. water): dramatically increased | NG2+ cells, quetiapine alone (C57BL/6 mice [3]; quetiapine alone with normal diet): Few NG2+ cells were observed | GST-pi+ cells, quetiapine alone (C57BL/6 mice [3]; [8]): had no difference | myelination (MBP staining), quetiapine alone (C57BL/6 mice [3]; [8]): show no difference on myelination | proliferation and differentiation of oligodendrocytes [4]: promoted the proliferation and differentiation of oligodendrocytes | expression of BDNF in rat hippocampus after immobilization stress (BDNF): attenuate the immobilization stress-induced decrease in the expression of BDNF | PC 12 cell death (PC 12 cell): reduce the PC 12 cell death | short- and long-term behavioral consequences of chronic dl-amphetamine (rats): modulate the short- and long-term behavioral consequences | memory deficits induced by phencyclidine and kainic acid [5]: could reverse memory deficits

Cc1nc2n(c(=O)c1CCN1CCC(c3noc4cc(F)ccc34)CC1)CCCC2 [risperidone]
PC 12 cell death (PC 12 cell): reduce the PC 12 cell death
